Laboratory results reported in ChEMBL document CHEMBL1201862, “PubChem BioAssay data set” (2004).
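How tested: cells in 96-well plates exposed to compound for 48 hours at five concentrations. At the GI50, growth is halved.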 Activity calls are given as the source filed them. Cut-off read from the data, not from the text of the source: active = GI50 up to about 1.1 µM and inactive = higher.

Experiments:
Assay in all cases: DTP human tumour cell line panel, 48 h
DU-145 = tested on: DU-145
SK-OV-3 = tested on: SK-OV-3
NCI-H226 = tested on: NCI-H226
BT-549 = tested on: BT-549
SF-268 = tested on: SF-268
M14 = tested on: M14
UACC-62 = tested on: UACC-62
IGROV-1 = tested on: IGROV-1
MDA-N = tested on: MDA-N
SK-MEL-28 = tested on: SK-MEL-28
EKVX = tested on: EKVX
ACHN = tested on: ACHN
UO-31 = tested on: UO-31
NCI-H460 = tested on: NCI-H460
Malme-3M = tested on: Malme-3M
COLO 205 = tested on: COLO 205
SK-MEL-2 = tested on: SK-MEL-2
OVCAR-5 = tested on: OVCAR-5
SNB-75 = tested on: SNB-75

SMILES | GI50 (DU-145) | GI50 (SK-OV-3) | GI50 (NCI-H226) | GI50 (BT-549) | GI50 (SF-268) | GI50 (M14) | GI50 (UACC-62) | GI50 (IGROV-1) | GI50 (MDA-N) | GI50 (SK-MEL-28) | GI50 (EKVX) | GI50 (ACHN) | GI50 (UO-31) | GI50 (NCI-H460) | GI50 (Malme-3M) | GI50 (COLO 205) | GI50 (SK-MEL-2) | GI50 (OVCAR-5) | GI50 (SNB-75)
CNc1ccc([S+]([O-])Nc2ccc(OC)cc2)cc1 (configuration not stated) | 39.5 µM (inactive) | 49.2 µM (inactive) | > 100 µM (inactive) | 2.06 µM (inactive) | > 100 µM (inactive) | > 100 µM (inactive) | > 10 µM (inactive) | 11.4 µM (inactive) | > 100 µM (inactive) | 93.3 µM (inactive) | 70.1 µM (inactive) | 32.3 µM (inactive) | 7 µM (inactive) | 32 µM (inactive) | 41.7 µM (inactive) | 29.2 µM (inactive) | – | – | –
O=C(O)c1ccc(C=C2Sc3ccccc3S2)cc1 | > 100 µM (inactive) | 86.9 µM (inactive) | > 100 µM (inactive) | 62.7 µM (inactive) | 52.6 µM (inactive) | 44.8 µM (inactive) | 26.2 µM (inactive) | 82.8 µM (inactive) | 29 µM (inactive) | – | 45 µM (inactive) | 22.6 µM (inactive) | 63.8 µM (inactive) | 50 µM (inactive) | 84.7 µM (inactive) | 92.7 µM (inactive) | 29.4 µM (inactive) | 66.1 µM (inactive) | –
O=C1NC(=O)/C(=C\c2ccncc2)N1 | > 100 µM (inactive) | > 100 µM (inactive) | > 100 µM (inactive) | > 100 µM (inactive) | – | > 100 µM (inactive) | – | > 100 µM (inactive) | > 100 µM (inactive) | > 100 µM (inactive) | > 100 µM (inactive) | > 100 µM (inactive) | > 100 µM (inactive) | > 100 µM (inactive) | – | > 100 µM (inactive) | > 100 µM (inactive) | > 100 µM (inactive) | > 100 µM (inactive)
COc1cc(O)c(C(=O)/C=C/c2ccccc2)c(OC)c1 [FLAVOKAWAIN B] | 7.73 µM (inactive) | 11.6 µM (inactive) | 4.15 µM (inactive) | 4.47 µM (inactive) | 4.98 µM (inactive) | 7.94 µM (inactive) | 4.14 µM (inactive) | 4.53 µM (inactive) | 3.78 µM (inactive) | 3.34 µM (inactive) | 10.4 µM (inactive) | 8.73 µM (inactive) | 5.83 µM (inactive) | 3.54 µM (inactive) | 4.61 µM (inactive) | 14.5 µM (inactive) | 4.62 µM (inactive) | 23.9 µM (inactive) | –
BrC(c1cccc2ccccc12)c1cccc2ccccc12 | 13.6 µM (inactive) | – | 17.2 µM (inactive) | 21.4 µM (inactive) | 12.1 µM (inactive) | 17.3 µM (inactive) | 14.6 µM (inactive) | 13.8 µM (inactive) | 15.1 µM (inactive) | 19.5 µM (inactive) | 16.7 µM (inactive) | 21.9 µM (inactive) | 26.8 µM (inactive) | 15.9 µM (inactive) | 4.94 µM (inactive) | – | 14.9 µM (inactive) | 27.1 µM (inactive) | 13.5 µM (inactive)
COc1ccc(NCc2cnc3nc(N)nc(N)c3c2C)cc1 | 0.718 µM (active) | 4.34 µM (inactive) | 33.7 µM (inactive) | > 100 µM (inactive) | 0.618 µM (active) | 1.69 µM (inactive) | 0.274 µM (active) | 0.771 µM (active) | 0.174 µM (active) | 8.51 µM (inactive) | 15.7 µM (inactive) | 0.56 µM (active) | > 49.8 µM (inactive) | 0.433 µM (active) | – | 9.35 µM (inactive) | > 100 µM (inactive) | 3.87 µM (inactive) | 52 µM (inactive)
CC(=O)c1ccc(/N=N/N2CCCC2)cc1 | > 100 µM (inactive) | > 100 µM (inactive) | > 100 µM (inactive) | > 100 µM (inactive) | > 100 µM (inactive) | > 100 µM (inactive) | > 100 µM (inactive) | > 100 µM (inactive) | > 100 µM (inactive) | – | > 100 µM (inactive) | > 100 µM (inactive) | > 100 µM (inactive) | > 100 µM (inactive) | – | > 100 µM (inactive) | > 100 µM (inactive) | > 100 µM (inactive) | > 100 µM (inactive)
CO/N=C(\C(=O)Nc1cncs1)c1csc(N)n1 | > 10 µM (inactive) | > 10 µM (inactive) | – | > 10 µM (inactive) | > 10 µM (inactive) | > 10 µM (inactive) | > 10 µM (inactive) | > 10 µM (inactive) | > 10 µM (inactive) | > 10 µM (inactive) | > 10 µM (inactive) | > 10 µM (inactive) | > 10 µM (inactive) | > 10 µM (inactive) | > 10 µM (inactive) | > 10 µM (inactive) | – | > 10 µM (inactive) | > 10 µM (inactive)
COc1cc2c(cc1OC)-c1[nH]c3ccc(C#N)cc3c1CC(=O)N2 | 3.33 µM (inactive) | > 100 µM (inactive) | 3.8 µM (inactive) | 10.5 µM (inactive) | 1.72 µM (inactive) | 8.09 µM (inactive) | > 84.9 µM (inactive) | 0.759 µM (active) | 2.48 µM (inactive) | > 26.3 µM (inactive) | 22.2 µM (inactive) | 2.32 µM (inactive) | 2.11 µM (inactive) | 5.31 µM (inactive) | > 28.5 µM (inactive) | 0.463 µM (active) | – | 3.69 µM (inactive) | 0.44 µM (active)
Oc1ccc2c(c1)c1c(n2CCN2CCOCC2)-c2ccccc2CC1 | – | 42.2 µM (inactive) | 30.7 µM (inactive) | 33.6 µM (inactive) | 30 µM (inactive) | 26.3 µM (inactive) | 20.7 µM (inactive) | 15.1 µM (inactive) | 45.4 µM (inactive) | 18.6 µM (inactive) | 35.5 µM (inactive) | 28.2 µM (inactive) | 23.6 µM (inactive) | 5.83 µM (inactive) | 19.6 µM (inactive) | – | 23.1 µM (inactive) | 24.4 µM (inactive) | 28 µM (inactive)
Cc1ccccc1/N=N/c1ccc(N/N=C2/CCCNC2=O)c(C)c1 | > 100 µM (inactive) | > 100 µM (inactive) | > 100 µM (inactive) | > 100 µM (inactive) | > 100 µM (inactive) | > 100 µM (inactive) | > 100 µM (inactive) | > 100 µM (inactive) | > 100 µM (inactive) | > 100 µM (inactive) | 88.5 µM (inactive) | > 100 µM (inactive) | 39.5 µM (inactive) | > 100 µM (inactive) | > 100 µM (inactive) | > 100 µM (inactive) | > 100 µM (inactive) | > 100 µM (inactive) | –
C=C(C)C(CC=C(C)C)CC12CC(CC=C(C)C)C(C)(C)C(CC=C(C)C)(C(=O)C(Cc3ccc(O)c(O)c3)=C1O)C2=O (configuration not stated) | > 100 µM (inactive) | > 100 µM (inactive) | > 100 µM (inactive) | > 100 µM (inactive) | > 100 µM (inactive) | > 100 µM (inactive) | 85.3 µM (inactive) | > 100 µM (inactive) | > 100 µM (inactive) | > 100 µM (inactive) | > 100 µM (inactive) | > 100 µM (inactive) | > 100 µM (inactive) | > 100 µM (inactive) | 57.8 µM (inactive) | > 100 µM (inactive) | – | > 100 µM (inactive) | > 100 µM (inactive)
CCCCCc1cc2cc3c(c(O)c2c(=O)[nH]1)C1(CCC3)C(=O)c2c(O)ccc(O)c2C1=O | > 100 µM (inactive) | – | > 100 µM (inactive) | > 100 µM (inactive) | > 100 µM (inactive) | > 100 µM (inactive) | – | > 100 µM (inactive) | > 100 µM (inactive) | > 100 µM (inactive) | > 100 µM (inactive) | > 100 µM (inactive) | > 100 µM (inactive) | > 100 µM (inactive) | > 100 µM (inactive) | > 100 µM (inactive) | 66.7 µM (inactive) | > 100 µM (inactive) | 58.2 µM (inactive)
CN1C(=O)C2CCCC(=O)N2c2cccnc21 (configuration not stated) | > 100 µM (inactive) | – | > 100 µM (inactive) | > 100 µM (inactive) | > 100 µM (inactive) | – | 68.9 µM (inactive) | > 100 µM (inactive) | > 100 µM (inactive) | > 100 µM (inactive) | > 100 µM (inactive) | > 100 µM (inactive) | 74.1 µM (inactive) | > 100 µM (inactive) | > 100 µM (inactive) | > 100 µM (inactive) | 32.4 µM (inactive) | – | –
Cc1c(NC(=O)c2cc([N+](=O)[O-])cc([N+](=O)[O-])c2)c(=O)n(-c2ccccc2)n1C | > 100 µM (inactive) | > 100 µM (inactive) | > 100 µM (inactive) | > 100 µM (inactive) | > 100 µM (inactive) | > 100 µM (inactive) | > 100 µM (inactive) | 48.8 µM (inactive) | > 100 µM (inactive) | > 100 µM (inactive) | – | – | > 100 µM (inactive) | 97.7 µM (inactive) | 27.3 µM (inactive) | 20.1 µM (inactive) | > 100 µM (inactive) | – | –
O=c1[nH]nc(-c2ccccc2)c2[nH]c(-c3ccccc3)cc12 | > 100 µM (inactive) | > 100 µM (inactive) | – | > 100 µM (inactive) | > 100 µM (inactive) | > 100 µM (inactive) | – | > 100 µM (inactive) | > 100 µM (inactive) | – | > 100 µM (inactive) | – | > 100 µM (inactive) | – | > 100 µM (inactive) | > 100 µM (inactive) | – | > 100 µM (inactive) | 45.8 µM (inactive)
